Results published in patent US7144891B2, “Benzo[b ]pyrano[3,2- h ]acridin-7-one cinnamate compounds” (Les Laboratoires Servier, priority 2004, dated 2006).

Experiments:
[1] = tested on: KB-3-1 human epidermoid carcinoma cells; test: In vitro cytotoxicity, Microculture Tetrazolium Assay, KB-3-1; type: cell-based; settings: KB-3-1, 4 days incubation; read-out: IC50 (concentration of cytotoxic agent which inhibits proliferation of the treated cells by 50%)
Procedure: (§1) Two cell lines were used • 1 murine leukaemia: L1210, • 1 human epidermoid carcinoma: KB-3-1
(§2) The cells are cultured in RPMI 1640 complete culture medium containing 10% foetal calf serum, 2 mM glutamine, 50 units/ml of penicillin, 50 μg/ml of streptomycin and 10 mM Hepes, pH=7.4. The cells are distributed on microplates and are exposed to the cytotoxic compounds. The cells are then incubated for 2 days (L1210) or 4 days (KB-3-1). The number of viable cells is then quantified by a colorimetric assay, the Microculture Tetrazolium Assay (Cancer Res. 1987, 47, 939–942).
(§3) The results are expressed in terms of the IC50 (the concentration of cytotoxic agent which inhibits proliferation of the treated cells by 50%).

[2] = tested on: L1210 murine leukaemia cells; test: In vitro cytotoxicity, Microculture Tetrazolium Assay, L1210; type: cell-based; settings: L1210, 2 days incubation; read-out: IC50 (concentration of cytotoxic agent which inhibits proliferation of the treated cells by 50%)
Procedure: as §1, §2, §3

[3] = tested on: C38 adenocarcinoma of the colon; test: In vivo anti-tumour activity with respect to C38 adenocarcinoma of the colon; settings: i.v. once per week for 3 weeks (days 10, 17, 24), s.c. C38 tumour in B6D2F1 mice
Procedure: Anti-tumour Activity with Respect to C38 Adenocarcinoma of the Colon
Tumour fragments of C38 adenocarcinoma of the colon weighing approximately 30 mg were implanted under the skin of B6D2F1 mice (Iffa Credo, France) on day 0.
After growth of the tumour, the mice were divided into control (18 animals) and treated (6 or 7 animals) groups, which were homogeneous with respect to tumour size. The products were administered by the i.v. route once per week for 3 weeks (on days 10, 17 and 24), at their Maximum Tolerated Dose (MTD), MTD/2 and MTD/4.
The tumours were measured twice a week and the tumour volumes were calculated according to the following formula: volume (mm^3)=length (mm)×breadth (mm^2)/2. The anti-tumour activity is expressed as % T/C: […]
V0 and Vt being the initial volume of the tumour and its volume at measurement time t, respectively.
The optimum dose is the dose giving the lowest T/C value without toxicity (early death or weight loss greater than 20%).

[4] = general statement, limits bioavailability and i.v. use; cited from earlier work

**Q.** For COc1cc2c(c3c1c(=O)c1cc4ccccc4cc1n3C)[C@@H](OC(C)=O)[C@@H](OC(=O)C=Cc1ccccc1)C(C)(C)O2 (racemic) [Example 2, (±)-cis-1-Acetoxy-2-cinnamoyloxy-6-methoxy-3,3,14-trimethyl-1,2,3,14-tetrahydro-1H-benzo[b]pyrano[3,2-h]acridin-7-one], which IC50 [1] is on record?
**A.** 151 nM

**Q.** What about the IC50 [2] of the same molecule?
**A.** 590 nM

**Q.** What does the source list for COc1cc2c(c3c1c(=O)c1ccccc1n3C)C=CC(C)(C)O2 [acronycine, reference compound]?
**A.** anti-tumour activity (% T/C) ([3]; optimum dose of 100 mg/kg): 27%; solubility [4]: low

**Q.** Which “anti-tumour activity (% T/C)” value ([3]; optimum dose of 4 mg/kg) does the source give for COc1cc2c(c3c1c(=O)c1cc4ccccc4cc1n3C)[C@@H](OC(C)=O)[C@@H](OC(=O)C=Cc1ccc(Cl)c(Cl)c1)C(C)(C)O2 (single isomer, unassigned) [Example 33, (±)-cis-1-Acetoxy-2-(3,4-dichlorocinnamoyloxy)-6-methoxy-3,3,14-trimethyl-1,2,3,14-tetrahydro-1H-benzo[b]pyrano[3,2-h]acridin-7-one (Enantiomer β)] here?
**A.** 50%
